Assay results reported in the NIST ThermoML archive (doi:10.1021/je1002237).
± gives the expanded uncertainty stated by the source.

Assay: xn = mol fraction of the nth substance listed
Settings: 101 kPa, Liquid

CCOS(=O)(=O)[O-].CCn1cc[n+](C)c1 [1-ethyl-3-methylimidazolium ethyl sulfate] + CCO
mass density (278.15 K, x2 = 0): 1251.4 ± 1.1 kg/m3 | mass density (278.15 K, x2 = 0.016): 1249.64 ± 1.1 kg/m3 | mass density (278.15 K, x2 = 0.0254): 1248.22 ± 1.1 kg/m3 | mass density (278.15 K, x2 = 0.0425): 1246.12 ± 1.1 kg/m3 | mass density (278.15 K, x2 = 0.0877): 1240.95 ± 1.1 kg/m3 | mass density (278.15 K, x2 = 0.1178): 1235.48 ± 1 kg/m3 | mass density (278.15 K, x2 = 0.142): 1231.31 ± 1 kg/m3 | mass density (278.15 K, x2 = 0.2344): 1216.31 ± 0.94 kg/m3 | mass density (278.15 K, x2 = 0.4236): 1174.57 ± 0.8 kg/m3 | mass density (278.15 K, x2 = 0.6005): 1116.78 ± 0.66 kg/m3 | mass density (278.15 K, x2 = 0.7305): 1055.36 ± 0.55 kg/m3 | mass density (278.15 K, x2 = 0.833): 987.08 ± 0.46 kg/m3 | mass density (278.15 K, x2 = 0.9022): 925.53 ± 0.51 kg/m3 | mass density (278.15 K, x2 = 0.9567): 863.73 ± 0.58 kg/m3 | mass density (278.15 K, x2 = 0.9846): 826.39 ± 0.64 kg/m3 | mass density (278.15 K, x2 = 0.9924): 814.42 ± 0.66 kg/m3 | mass density (278.15 K, x2 = 0.9963): 808.01 ± 0.67 kg/m3 | mass density (283.15 K, x2 = 0): 1247.84 ± 1.1 kg/m3 | mass density (283.15 K, x2 = 0.016): 1246.08 ± 1.1 kg/m3 | mass density (283.15 K, x2 = 0.0254): 1244.65 ± 1.1 kg/m3 | mass density (283.15 K, x2 = 0.0425): 1242.58 ± 1.1 kg/m3 | mass density (283.15 K, x2 = 0.0877): 1237.47 ± 1 kg/m3 | mass density (283.15 K, x2 = 0.1178): 1232.05 ± 1 kg/m3 | mass density (283.15 K, x2 = 0.142): 1227.85 ± 0.99 kg/m3 | mass density (283.15 K, x2 = 0.2344): 1212.79 ± 0.93 kg/m3 | mass density (283.15 K, x2 = 0.4236): 1170.96 ± 0.79 kg/m3 | mass density (283.15 K, x2 = 0.6005): 1113.06 ± 0.66 kg/m3 | mass density (283.15 K, x2 = 0.7305): 1051.54 ± 0.54 kg/m3 | mass density (283.15 K, x2 = 0.833): 983.14 ± 0.47 kg/m3 | mass density (283.15 K, x2 = 0.9022): 921.55 ± 0.51 kg/m3 | mass density (283.15 K, x2 = 0.9567): 860.74 ± 0.59 kg/m3 | mass density (283.15 K, x2 = 0.9846): 822.21 ± 0.64 kg/m3 | mass density (283.15 K, x2 = 0.9924): 810.28 ± 0.66 kg/m3 | mass density (283.15 K, x2 = 0.9963): 803.79 ± 0.67 kg/m3 | mass density (288.15 K, x2 = 0): 1244.39 ± 1.1 kg/m3 | mass density (288.15 K, x2 = 0.016): 1242.65 ± 1.1 kg/m3 | mass density (288.15 K, x2 = 0.0254): 1241.24 ± 1.1 kg/m3 | mass density (288.15 K, x2 = 0.0425): 1239.16 ± 1.1 kg/m3 | mass density (288.15 K, x2 = 0.0877): 1234.04 ± 1 kg/m3 | mass density (288.15 K, x2 = 0.1178): 1228.59 ± 1 kg/m3 | mass density (288.15 K, x2 = 0.142): 1224.38 ± 0.99 kg/m3 | mass density (288.15 K, x2 = 0.2344): 1209.28 ± 0.92 kg/m3 | mass density (288.15 K, x2 = 0.4236): 1167.36 ± 0.79 kg/m3 | mass density (288.15 K, x2 = 0.6005): 1109.36 ± 0.65 kg/m3 | mass density (288.15 K, x2 = 0.7305): 1047.72 ± 0.53 kg/m3 | mass density (288.15 K, x2 = 0.833): 979.21 ± 0.47 kg/m3 | mass density (288.15 K, x2 = 0.9022): 917.81 ± 0.52 kg/m3 | mass density (288.15 K, x2 = 0.9567): 856.8 ± 0.59 kg/m3 | mass density (288.15 K, x2 = 0.9846): 818.01 ± 0.65 kg/m3 | mass density (288.15 K, x2 = 0.9924): 806.17 ± 0.67 kg/m3 | mass density (288.15 K, x2 = 0.9963): 799.55 ± 0.68 kg/m3 | mass density (293.15 K, x2 = 0): 1241.01 ± 1.1 kg/m3 | mass density (293.15 K, x2 = 0.016): 1239.25 ± 1.1 kg/m3 | mass density (293.15 K, x2 = 0.0254): 1237.84 ± 1.1 kg/m3 | mass density (293.15 K, x2 = 0.0425): 1235.76 ± 1.1 kg/m3 | mass density (293.15 K, x2 = 0.0877): 1230.59 ± 1 kg/m3 | mass density (293.15 K, x2 = 0.1178): 1225.14 ± 1 kg/m3 | mass density (293.15 K, x2 = 0.142): 1220.92 ± 0.98 kg/m3 | mass density (293.15 K, x2 = 0.2344): 1205.78 ± 0.91 kg/m3 | mass density (293.15 K, x2 = 0.4236): 1163.79 ± 0.78 kg/m3 | mass density (293.15 K, x2 = 0.6005): 1105.67 ± 0.64 kg/m3 | mass density (293.15 K, x2 = 0.7305): 1043.92 ± 0.53 kg/m3 | mass density (293.15 K, x2 = 0.833): 975.3 ± 0.47 kg/m3 | mass density (293.15 K, x2 = 0.9022): 913.45 ± 0.52 kg/m3 | mass density (293.15 K, x2 = 0.9567): 851.32 ± 0.6 kg/m3 | mass density (293.15 K, x2 = 0.9846): 813.81 ± 0.66 kg/m3 | mass density (293.15 K, x2 = 0.9924): 801.75 ± 0.68 kg/m3 | mass density (293.15 K, x2 = 0.9963): 795.3 ± 0.69 kg/m3 | mass density (298.15 K, x2 = 0): 1237.63 ± 1.1 kg/m3 | mass density (298.15 K, x2 = 0.016): 1235.85 ± 1.1 kg/m3 | mass density (298.15 K, x2 = 0.0254): 1234.43 ± 1.1 kg/m3 | mass density (298.15 K, x2 = 0.0425): 1232.34 ± 1 kg/m3 | mass density (298.15 K, x2 = 0.0877): 1227.18 ± 1 kg/m3 | mass density (298.15 K, x2 = 0.1178): 1221.7 ± 0.99 kg/m3 | mass density (298.15 K, x2 = 0.142): 1217.47 ± 0.97 kg/m3 | mass density (298.15 K, x2 = 0.2344): 1202.3 ± 0.9 kg/m3 | mass density (298.15 K, x2 = 0.4236): 1160.21 ± 0.77 kg/m3 | mass density (298.15 K, x2 = 0.6005): 1101.99 ± 0.64 kg/m3 | mass density (298.15 K, x2 = 0.7305): 1040.12 ± 0.52 kg/m3 | mass density (298.15 K, x2 = 0.833): 971.37 ± 0.47 kg/m3 | mass density (298.15 K, x2 = 0.9022): 910.22 ± 0.53 kg/m3 | mass density (298.15 K, x2 = 0.9567): 848.59 ± 0.6 kg/m3 | mass density (298.15 K, x2 = 0.9846): 809.59 ± 0.66 kg/m3 | mass density (298.15 K, x2 = 0.9924): 797.8 ± 0.68 kg/m3 | mass density (298.15 K, x2 = 0.9963): 791.03 ± 0.7 kg/m3 | mass density (303.15 K, x2 = 0): 1234.24 ± 1.1 kg/m3 | mass density (303.15 K, x2 = 0.016): 1232.45 ± 1.1 kg/m3 | mass density (303.15 K, x2 = 0.0254): 1231.03 ± 1.1 kg/m3 | mass density (303.15 K, x2 = 0.0425): 1228.94 ± 1 kg/m3 | mass density (303.15 K, x2 = 0.0877): 1223.75 ± 1 kg/m3 | mass density (303.15 K, x2 = 0.1178): 1218.26 ± 0.98 kg/m3 | mass density (303.15 K, x2 = 0.142): 1214.02 ± 0.96 kg/m3 | mass density (303.15 K, x2 = 0.2344): 1198.83 ± 0.9 kg/m3 | mass density (303.15 K, x2 = 0.4236): 1156.65 ± 0.76 kg/m3 | mass density (303.15 K, x2 = 0.6005): 1098.32 ± 0.63 kg/m3 | mass density (303.15 K, x2 = 0.7305): 1036.36 ± 0.52 kg/m3 | mass density (303.15 K, x2 = 0.833): 967.46 ± 0.48 kg/m3 | mass density (303.15 K, x2 = 0.9022): 906.22 ± 0.53 kg/m3 | mass density (303.15 K, x2 = 0.9567): 844.44 ± 0.61 kg/m3 | mass density (303.15 K, x2 = 0.9846): 805.36 ± 0.67 kg/m3 | mass density (303.15 K, x2 = 0.9924): 793.53 ± 0.69 kg/m3 | mass density (303.15 K, x2 = 0.9963): 786.74 ± 0.7 kg/m3 | mass density (308.15 K, x2 = 0): 1230.87 ± 1.1 kg/m3 | mass density (308.15 K, x2 = 0.016): 1229.05 ± 1.1 kg/m3 | mass density (308.15 K, x2 = 0.0254): 1227.63 ± 1 kg/m3 | mass density (308.15 K, x2 = 0.0425): 1225.53 ± 1 kg/m3 | mass density (308.15 K, x2 = 0.0877): 1220.34 ± 1 kg/m3 | mass density (308.15 K, x2 = 0.1178): 1214.84 ± 0.97 kg/m3 | mass density (308.15 K, x2 = 0.142): 1210.59 ± 0.95 kg/m3 | mass density (308.15 K, x2 = 0.2344): 1195.36 ± 0.89 kg/m3 | mass density (308.15 K, x2 = 0.4236): 1153.1 ± 0.76 kg/m3 | mass density (308.15 K, x2 = 0.6005): 1094.66 ± 0.63 kg/m3 | mass density (308.15 K, x2 = 0.7305): 1032.55 ± 0.51 kg/m3 | mass density (308.15 K, x2 = 0.833): 963.54 ± 0.48 kg/m3 | mass density (308.15 K, x2 = 0.9022): 902.18 ± 0.54 kg/m3 | mass density (308.15 K, x2 = 0.9567): 840.27 ± 0.62 kg/m3 | mass density (308.15 K, x2 = 0.9846): 801.09 ± 0.68 kg/m3 | mass density (308.15 K, x2 = 0.9924): 789.23 ± 0.7 kg/m3 | mass density (308.15 K, x2 = 0.9963): 782.41 ± 0.71 kg/m3
